# Earlier results, collected in publication PMC7366343 (Journal of the American Chemical Society, 2019).
# pIC50: −log10 of the molar value.
# Columns and labels:
# hTDO = hTDO (Homo sapiens, UniProt P48775); conditions: read-out: reported IC50 for hTDO
# Chain of hTDO (P48775 whole entry): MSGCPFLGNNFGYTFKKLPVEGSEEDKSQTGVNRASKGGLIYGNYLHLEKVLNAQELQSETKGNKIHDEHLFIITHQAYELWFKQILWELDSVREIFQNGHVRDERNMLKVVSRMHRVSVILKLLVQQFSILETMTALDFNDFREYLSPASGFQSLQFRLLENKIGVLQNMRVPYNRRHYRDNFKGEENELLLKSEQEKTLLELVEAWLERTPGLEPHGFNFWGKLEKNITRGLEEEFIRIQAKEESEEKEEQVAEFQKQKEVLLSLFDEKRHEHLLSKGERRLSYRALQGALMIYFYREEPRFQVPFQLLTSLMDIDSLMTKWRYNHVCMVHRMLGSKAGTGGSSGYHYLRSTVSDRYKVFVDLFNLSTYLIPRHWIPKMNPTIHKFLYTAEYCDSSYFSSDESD
smiles,measurement,setting,value
"O=C1CC(c2c[nH]c3ccc(F)cc23)C(=O)N1 (centres unmarked) [IPD, 3-(5-Fluoro-1H-indol-3-yl)pyrrolidine-2,5-dione]",blood-brain barrier crossing,,able to cross the blood-brain barrier
same,pIC50,hTDO,< 4.30
